Assay results as given in patent US9174991B2, “Crystalline form of pemetrexed disodium” (Azad Pharmaceutical Ingredients AG, priority 2009, dated 2015).
Counter-ions that a name gives are not always drawn. Like-named read-outs stand apart in the source and are kept apart here.

Tests used:
[1] = for H2O (KFT) / HPLC-purity (10.5 min) / PXRD / HPLC-purity: dark, air
[2] = starting material, before storage
Protocol: HPLC analysis was done on an Agilent 1100 system equipped with DAD detector using a Zorbax SB-Phenyl column (150×4.6 mm, 3 μm). Measurements were done at 230 nm wavelengths at 25° C. using a flow of 1.0 mL/min and 8 min post-run time. As mobile phase water containing 0.03% TFA and acetonitrile containing 0.025% TFA were used, solvents were HPLC grade. Sample preparation: 10 mg sample in 25 mL water:ACN=1:1, 5 uL injection. Retention time Pemetrexed Disodium: 10.3 min.
PXRD: Routine PXRD measurements were carried out on a Bruker AXS D8Advance diffractometer equipped with CuKα source with CuKβ filter and a VANTEC detector (Ser. No.: 202964). Measurement parameters: 3° 2theta to 39.9° 2theta, step time: 2s, step size: 0.022°, T=25° C., X-ray generator: 35 kV/40 mA.

[3] = for change in HPLC purity in the presence of light (in words) / change in color in the presence of light (in words): text says after 16 d
Protocol: (§1) To investigate the stability of the different forms of Pemetrexed Disodium a stability test concerning storage at different relative humidity, storage in the presence of light and stability under drying conditions was carried out.
The samples were stored in double PE plastic bags and exposed to daylight IT=20° C. to 25° C. IPCs were taken after 15 d.
(§2) HPLC analysis was done on an Agilent 1100 system equipped with DAD detector using a Zorbax SB-Phenyl column (150×4.6 mm, 3 μm). Measurements were done at 230 nm wavelengths at 25° C. using a flow of 1.0 mL/min and 8 min post-run time. […] Sample preparation: 10 mg sample in 25 mL water:ACN=1:1, 5 uL injection.

[4] = 70° C., 5 mbar; for change in HPLC-purity upon vacuum drying (in words): up to 9 d
Protocol: as §1
Four samples were stored at 70° 5 mbar in laboratory vacuum oven. IPC were taken after 2 d, 9 d
as §2

[5] = 5% to 12% relative humidity, 2 d, measured 11.7% (Form A 5.8%), 23° C.
[6] = 5% to 12% relative humidity, 5 d, measured 9.5% (Form A 5.3%), 24° C.
[7] = 5% to 12% relative humidity, 9 d, measured 9% (Form A 6%), 24° C.
[8] = 5% to 12% relative humidity, 16 d, measured 8.5% (Form A 5.8%), 24° C.
[9] = 27% to 33% relative humidity, 2 d, measured 29.8% (Form A 28%), 23° C.
[10] = 27% to 33% relative humidity, 5 d, measured 29% (Form A 27%), 24° C.
[11] = 27% to 33% relative humidity, 9 d, measured 31% (Form A 30%), 24° C.
[12] = 27% to 33% relative humidity, 16 d, measured 30.4% (Form A 28.7%), 24° C.
[13] = 39% to 50% relative humidity, 2 d, measured 41.1% (Form A 39%), 23° C.
[14] = 39% to 50% relative humidity, 5 d, measured 42.8% (Form A 38.6%), 24° C.
[15] = 39% to 50% relative humidity, 9 d, measured 48% (Form A 47%), 24° C.
[16] = 39% to 50% relative humidity, 16 d, measured 47.3% (Form A 46.4%), 24° C.
[17] = 60% to 70% relative humidity, 2 d, measured 61%, 22° C. (Form A 54%, 23° C)
[18] = 60% to 70% relative humidity, 5 d, measured 63% (Form A 57%), 24° C.
[19] = 60% to 70% relative humidity, 9 d, measured 69% (Form A 68%), 24° C.
[20] = 60% to 70% relative humidity, 16 d, measured 66.9% (Form A 67.2%), 24° C.
[21] = double PE plastic bags, daylight, 20° C. to 25° C., 15 d
[22] = daylight, listed as Pemetrexed Disodium Form A

Nc1nc(O)c2c(CCc3ccc(C(=O)N[C@@H](CCC(=O)O)C(=O)O)cc3)c[nH]c2n1 [2.5 hydrate, disodium N-[4-[2-(2-amino-4,7-dihydro-4-oxo-3H-pyrrolo[2,3-d]-pyrimidin-5-yl)ethyl]benzoyl]-L-glutamic acid salt]
change in water content (in words) ([1]; 5% to 12% rel. humidity (for Form A and Form IV: 7% to 12%), up to 16 d, listed as Pemetrexed Disodium 2.5 hydrate): no significant change | change in HPLC-purity (in words) ([1]; 5% to 12% rel. humidity (text for Form A: 7% to 12%), up to 16 d, listed as Pemetrexed Disodium 2.5 hydrate): no significant change | H2O (KFT) [1, 5]: 8.9% | HPLC-purity (10.5 min) [1, 5]: 99.74% | PXRD [1, 5]: 2.5 hydrate | HPLC-purity (10.5 min) [1, 6]: 99.82% | PXRD [1, 6]: 2.5 hydrate | HPLC-purity (10.5 min) [1, 7]: 99.90% | PXRD [1, 7]: 2.5 hydrate | HPLC-purity [1, 8]: 99.80% | PXRD [1, 8]: 2.5 hydrate | change in water content (in words) ([1]; 27% to 33% rel. humidity, up to 16 d, listed as Pemetrexed Disodium 2.5 hydrate): slight increase | HPLC-purity [1, 9]: 99.82% | PXRD [1, 9]: 2.5 hydrate | HPLC-purity [1, 10]: 99.91% | PXRD [1, 10]: 2.5 hydrate | HPLC-purity [1, 11]: 99.84% | PXRD ([1]; 27% to 33% relative humidity, 9 d, measured 31% (Form A 30%), 24° C., listed as Pemetrexed Disodium 2.5 hydrate): traces of Pemetrexed Disodium Heptahydrate | HPLC-purity [1, 12]: 99.64% | HPLC-purity [1, 13]: 99.83% | PXRD ([1]; 39% to 50% relative humidity, 2 d, measured 41.1% (Form A 39%), 23° C., listed as Pemetrexed Disodium 2.5 hydrate): formation of Pemetrexed Disodium Heptahydrate | HPLC-purity [1, 14]: 99.62% | PXRD [1, 14]: Heptahydrate | PXRD ([1]; 39% to 50% relative humidity, 5 d, measured 42.8% (Form A 38.6%), 24° C., listed as Pemetrexed Disodium 2.5 hydrate): transformation seems to be complete | HPLC-purity [1, 15]: 99.74% | PXRD [1, 15]: Heptahydrate | HPLC-purity [1, 16]: 99.86% | PXRD [1, 16]: Heptahydrate | change in water content (in words) ([1]; 40% to 50% rel. humidity, up to 16 d, listed as Pemetrexed Disodium 2.5 hydrate): increase | HPLC-purity [1, 17]: 99.73% | PXRD [1, 17]: Heptahydrate | PXRD ([1]; 60% to 70% relative humidity, 2 d, measured 61%, 22° C. (Form A 54%, 23° C), listed as Pemetrexed Disodium 2.5 hydrate): transformation to Pemetrexed Disodium Heptahydrate is complete | HPLC-purity [1, 18]: 99.86% | PXRD [1, 18]: Heptahydrate | HPLC-purity [1, 19]: 99.84% | PXRD [1, 19]: Heptahydrate | HPLC-purity [1, 20]: 99.83% | PXRD [1, 20]: Heptahydrate | change in HPLC purity in any of the samples (in words) ([1]; all relative humidities tested (5% to 70%), up to 16 d): No significant change | HPLC-purity (10.5 min) [2]: 99.86% | PXRD [2]: 2.5 hydrate | HPLC-purity ([3]; daylight study, Start): 99.73% | change in HPLC purity in the presence of light (in words) ([3]; daylight): do not show significant changes | change in color in the presence of light (in words) ([3]; daylight): do not show significant changes | HPLC-purity [3, 21]: 99.74% | HPLC-purity (10.5 min) ([4]; 2 d): 99.88% | PXRD ([4]; 2 d): 2.5 hydrate | HPLC-purity (10.5 min) ([4]; 9 d): 99.80% | H2O (KFT) ([4]; 9 d, listed as Pemetrexed Disodium 2.5 hydrate): 7.9% | change in HPLC-purity upon vacuum drying (in words) [4]: no significant change

Nc1nc(O)c2c(CCc3ccc(C(=O)N[C@@H](CCC(=O)O)C(=O)O)cc3)c[nH]c2n1 [Form A, disodium N-[4-[2-(2-amino-4,7-dihydro-4-oxo-3H-pyrrolo[2,3-d]-pyrimidin-5-yl)ethyl]benzoyl]-L-glutamic acid salt]
change in water content (in words) ([1]; 5% to 12% rel. humidity (for Form A and Form IV: 7% to 12%), up to 16 d, listed as Pemetrexed Disodium Form A): does not show a significant change | change in HPLC-purity (in words) ([1]; 5% to 12% rel. humidity (text for Form A: 7% to 12%), up to 16 d, listed as Pemetrexed Disodium Form A): does not show a significant change | H2O (KFT) [1, 5]: 3.5% | HPLC-purity (10.5 min) [1, 5]: 99.59% | PXRD [1, 5]: Form A | HPLC-purity (10.5 min) [1, 6]: 99.33% | PXRD [1, 6]: Form A | HPLC-purity (10.5 min) [1, 7]: 99.58% | PXRD [1, 7]: Form A | HPLC-purity [1, 8]: 99.50% | PXRD [1, 8]: Form A | change in HPLC-purity (in words) ([1]; 27% to 33% rel. humidity, after 16 d): without visible change | change in water content (in words) ([1]; 27% to 33% rel. humidity, up to 16 d, listed as Pemetrexed Disodium Form A): significant in increase | HPLC-purity [1, 9]: 99.60% | HPLC-purity [1, 10]: 99.43% | PXRD [1, 10]: Form A | HPLC-purity [1, 11]: 99.57% | PXRD [1, 11]: Form A | HPLC-purity [1, 12]: 99.69% | PXRD [1, 12]: Form A | HPLC-purity [1, 13]: 99.68% | PXRD [1, 13]: Form A | HPLC-purity [1, 14]: 99.64% | PXRD [1, 14]: Form A | HPLC-purity [1, 15]: 99.62% | PXRD [1, 15]: Form A | HPLC-purity [1, 16]: 99.70% | PXRD [1, 16]: Form A | change in HPLC-purity (in words) ([1]; 40% to 50% rel. humidity, after 16 d): without visible change | change in water content (in words) ([1]; 40% to 50% rel. humidity, up to 16 d, listed as Pemetrexed Disodium Form A): significant in increase | uptake of water ([1]; 60% to 70% rel. humidity): 21% | change in HPLC-purity (in words) ([1]; 60% to 70% rel. humidity, after 9 d): without significant change | HPLC-purity [1, 17]: 99.71% | PXRD [1, 17]: Form A | HPLC-purity [1, 18]: 99.51% | PXRD [1, 18]: Form A | HPLC-purity [1, 19]: 99.71% | PXRD [1, 19]: Heptahydrate | PXRD ([1]; 60% to 70% relative humidity, 9 d, measured 69% (Form A 68%), 24° C., listed as Pemetrexed Disodium Form A): complete transformation to Pemetrexed Disodium Heptahydrate | HPLC-purity [1, 20]: 99.72% | PXRD [1, 20]: Heptahydrate | HPLC-purity (10.5 min) [2]: 99.59% | PXRD [2]: Form A | HPLC-purity ([3]; daylight study, Start): 99.71% | change in HPLC purity in the presence of light (in words) [3, 22]: a lot of decomposition products | change in color in the presence of light (in words) [3, 22]: significant formation of color | Aspect [3, 21]: beige | H2O (KFT) [3, 21]: 2.44% | HPLC-purity [3, 21]: 95.83% | HPLC-purity (10.5 min) ([4]; 2 d): 99.67% | PXRD ([4]; 2 d): Form A | Aspect ([4]; 9 d): beige | HPLC-purity (10.5 min) ([4]; 9 d): 99.41% | change in HPLC-purity upon vacuum drying (in words) ([4]; listed as Pemetrexed Disodium Form A): significant decrease
